Test results from ChEMBL document CHEMBL1201862, “PubChem BioAssay data set” (2004).
The source made the active and inactive calls.

Assays:
Type in all cases: functional
[1] = target: High affinity nerve growth factor receptor (Homo sapiens, UniProt P04629);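 note: NTRK1 tested as one member of a kinome-wide profiling panel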
[2] = target: Mitogen-activated protein kinase 8 (Homo sapiens, UniProt P45983);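 note: value comes from one member of a kinome-wide kinase profiling panel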
[3] = target: Serine/threonine-protein kinase TBK1 (Homo sapiens, UniProt Q9UHD2); experiment: Navigating the Kinome. Panel member name: TBK1
[4] = target: cAMP-dependent protein kinase catalytic subunit alpha (Homo sapiens, UniProt P17612)
[5] = target: Mitogen-activated protein kinase 9 (Homo sapiens, UniProt P45984);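 note: value from a kinome panel profiling assay, MAPK9 panel entry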
[6] = target: Tyrosine-protein kinase BTK (Homo sapiens, UniProt Q06187)
[7] = target: Serine/threonine-protein kinase D3 (Homo sapiens, UniProt O94806);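 note: determined within a kinase panel screen, with PRKCN as the panel member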
Focal adhesion kinase 1 = Focal adhesion kinase 1 (Homo sapiens, UniProt Q05397);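 note: measured as one member of a kinome panel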
[8] = target: Dual specificity mitogen-activated protein kinase kinase 2 (Homo sapiens, UniProt P36507); experiment: Navigating the Kinome. Panel member name: MAP2K2
[9] = target: Macrophage-stimulating protein receptor (Homo sapiens, UniProt Q04912); experiment: Navigating the Kinome. Panel member name: MST1R
[10] = target: Leucine-rich repeat serine/threonine-protein kinase 2 (Homo sapiens, UniProt Q5S007);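 note: value from a broad kinome-wide panel profiling study in which LRRK2 was one of the kinases tested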
[11] = target: Serine/threonine-protein kinase pim-1 (Homo sapiens, UniProt P11309)
[12] = target: Mitogen-activated protein kinase kinase kinase kinase 4 (Homo sapiens, UniProt O95819)
[13] = target: Tyrosine-protein kinase Fyn (Homo sapiens, UniProt P06241)
LIM domain kinase 1 = LIM domain kinase 1 (Homo sapiens, UniProt P53667); experiment: Navigating the Kinome. Panel member name: LIMK1
[14] = target: Calcium/calmodulin-dependent protein kinase type II subunit alpha (Homo sapiens, UniProt Q9UQM7); experiment: Navigating the Kinome. Panel member name: CAMK2A
[15] = target: Platelet-derived growth factor receptor alpha (Homo sapiens, UniProt P16234); experiment: Navigating the Kinome. Panel member name: PDGFRA
[16] = target: Dual specificity mitogen-activated protein kinase kinase 1 (Homo sapiens, UniProt Q02750); experiment: Navigating the Kinome. Panel member name: MAP2K1
[17] = target: Leukocyte tyrosine kinase receptor (Homo sapiens, UniProt P29376); experiment: Navigating the Kinome. Panel member name: LTK
[18] = target: Glycogen synthase kinase-3 beta (Homo sapiens, UniProt P49841);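 note: value comes from a broad kinome profiling panel, with GSK3B as the panel member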
[19] = target: Dual specificity protein kinase CLK2 (Homo sapiens, UniProt P49760)
[20] = target: Serine/threonine-protein kinase Nek2 (Homo sapiens, UniProt P51955)
Activated CDC42 kinase 1 = Activated CDC42 kinase 1 (Homo sapiens, UniProt Q07912); experiment: Navigating the Kinome. Panel member name: ACK1
[21] = target: Rho-associated protein kinase 1 (Homo sapiens, UniProt Q13464);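 note: measured within a broad kinome-wide panel profiling many kinases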
[22] = target: Cyclin-dependent kinase 7 (Homo sapiens, UniProt P50613);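 note: value comes from a kinome-wide kinase profiling panel in which CDK7 is one member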
[23] = target: Ribosomal protein S6 kinase alpha-3 (Homo sapiens, UniProt P51812);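 note: measured within a kinome-wide profiling panel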
[24] = target: Dual specificity tyrosine-phosphorylation-regulated kinase 1A (Homo sapiens, UniProt Q13627);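 note: measured against DYRK1A as one member of a broad kinome profiling panel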
[25] = target: Mitogen-activated protein kinase 14 (Homo sapiens, UniProt Q16539);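 note: part of a kinome-wide panel, MAPK14 entry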
[26] = target: Dual specificity protein kinase CLK4 (Homo sapiens, UniProt Q9HAZ1)
[27] = target: BDNF/NT-3 growth factors receptor (Homo sapiens, UniProt Q16620);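 note: NTRK2 measured as one member of a broad kinome-wide kinase profiling panel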
[28] = target: Platelet-derived growth factor receptor beta (Homo sapiens, UniProt P09619);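 note: value comes from a kinome panel, with PDGFRB tested as one panel member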
[29] = target: cAMP-dependent protein kinase catalytic subunit PRKX (Homo sapiens, UniProt P51817)
[30] = target: Cyclin-dependent kinase 8 (Homo sapiens, UniProt P49336); experiment: Navigating the Kinome. Panel member name: CDK8
[31] = target: Serine/threonine-protein kinase PAK 4 (Homo sapiens, UniProt O96013);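 note: value obtained within a kinome profiling panel in which PAK4 was one of the panel members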
[32] = target: Tyrosine-protein kinase Lck (Homo sapiens, UniProt P06239);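 note: lck was assayed as one member of a kinase panel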
[33] = target: 5'-AMP-activated protein kinase catalytic subunit alpha-1 (Homo sapiens, UniProt Q13131)
[34] = target: Cyclin-dependent kinase 5 (Homo sapiens, UniProt Q00535);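 note: CDK5 measured as one member of a kinase profiling panel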
Aurora kinase A = Aurora kinase A (Homo sapiens, UniProt O14965);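 note: value from the Navigating the Kinome kinase panel profiling, panel entry STK6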
[35] = target: Serine/threonine-protein kinase TAO1 (Homo sapiens, UniProt Q7L7X3)
[36] = target: Glycogen synthase kinase-3 alpha (Homo sapiens, UniProt P49840);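 note: GSK3A result taken from a broad kinome-wide kinase panel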
[37] = target: Receptor-type tyrosine-protein kinase FLT3 (Homo sapiens, UniProt P36888);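 note: FLT3 was tested as one member of a kinome-wide kinase panel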
[38] = target: Inhibitor of nuclear factor kappa-B kinase subunit epsilon (Homo sapiens, UniProt Q14164); experiment: Navigating the Kinome. Panel member name: IKBKE
Aurora kinase B = Aurora kinase B (Homo sapiens, UniProt Q96GD4)
[39] = target: Tyrosine-protein kinase JAK3 (Homo sapiens, UniProt P52333)
[40] = target: Cyclin-dependent kinase 9 (Homo sapiens, UniProt P50750);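 note: value from the CDK9 entry of a kinome-spanning kinase panel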
[41] = target: Death-associated protein kinase 3 (Homo sapiens, UniProt O43293);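 note: measured as one member of a kinome-wide profiling panel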
[42] = target: Hepatocyte growth factor receptor (Homo sapiens, UniProt P08581);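 note: kinase panel profiling across the kinome, with MET as the panel member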
[43] = target: Dual specificity tyrosine-phosphorylation-regulated kinase 1B (Homo sapiens, UniProt Q9Y463); experiment: Navigating the Kinome. Panel member name: DYRK1B
[44] = target: Tyrosine-protein kinase receptor TYRO3 (Homo sapiens, UniProt Q06418);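 note: TYRO3 value obtained as one member of a kinome-wide profiling panel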
[45] = target: Vascular endothelial growth factor receptor 1 (Homo sapiens, UniProt P17948);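 note: measured within a kinome-wide profiling panel, FLT1 as the panel member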
[46] = target: Proto-oncogene tyrosine-protein kinase receptor Ret (Homo sapiens, UniProt P07949);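 note: measured within a kinome-wide profiling panel, RET as the panel member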
[47] = target: T1, Apoptotic protease-activating factor 1 (Homo sapiens, UniProt O14727); experiment: SAR analysis of small molecule inhibitors of Apaf-1 in a Fluorescent assay.; settings: read-out: IC50_Mean
T1 sequence (O14727 whole entry): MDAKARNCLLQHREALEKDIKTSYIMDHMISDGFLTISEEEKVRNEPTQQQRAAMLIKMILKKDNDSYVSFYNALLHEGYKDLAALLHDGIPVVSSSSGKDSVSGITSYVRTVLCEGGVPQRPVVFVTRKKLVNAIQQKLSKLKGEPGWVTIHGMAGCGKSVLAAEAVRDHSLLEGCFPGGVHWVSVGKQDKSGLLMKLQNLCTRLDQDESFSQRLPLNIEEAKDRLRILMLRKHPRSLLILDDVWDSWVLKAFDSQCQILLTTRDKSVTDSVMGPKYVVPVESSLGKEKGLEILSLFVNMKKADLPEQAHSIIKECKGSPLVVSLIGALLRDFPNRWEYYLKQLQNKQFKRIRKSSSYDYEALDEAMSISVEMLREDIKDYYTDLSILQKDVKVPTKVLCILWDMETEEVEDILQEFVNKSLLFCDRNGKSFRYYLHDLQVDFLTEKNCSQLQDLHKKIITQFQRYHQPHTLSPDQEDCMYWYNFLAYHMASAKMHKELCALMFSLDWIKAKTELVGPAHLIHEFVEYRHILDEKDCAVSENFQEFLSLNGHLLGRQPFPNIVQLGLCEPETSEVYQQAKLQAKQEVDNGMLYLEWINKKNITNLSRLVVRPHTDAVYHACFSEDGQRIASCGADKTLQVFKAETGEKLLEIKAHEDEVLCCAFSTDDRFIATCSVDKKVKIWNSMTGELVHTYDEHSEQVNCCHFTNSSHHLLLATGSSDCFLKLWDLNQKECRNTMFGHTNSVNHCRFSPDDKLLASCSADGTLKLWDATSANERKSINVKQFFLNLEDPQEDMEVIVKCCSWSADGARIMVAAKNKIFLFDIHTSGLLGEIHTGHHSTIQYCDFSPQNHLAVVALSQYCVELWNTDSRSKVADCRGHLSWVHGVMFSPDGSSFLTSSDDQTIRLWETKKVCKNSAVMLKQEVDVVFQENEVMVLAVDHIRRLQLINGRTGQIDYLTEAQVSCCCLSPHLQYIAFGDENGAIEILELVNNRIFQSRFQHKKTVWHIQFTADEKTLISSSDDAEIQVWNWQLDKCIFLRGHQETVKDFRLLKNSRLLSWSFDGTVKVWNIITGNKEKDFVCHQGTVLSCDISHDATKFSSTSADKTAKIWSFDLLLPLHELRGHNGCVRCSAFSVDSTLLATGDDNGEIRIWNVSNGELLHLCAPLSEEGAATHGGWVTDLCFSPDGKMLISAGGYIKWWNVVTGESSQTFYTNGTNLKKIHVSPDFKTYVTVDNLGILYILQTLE

[48] = target: Melanin-concentrating hormone receptor 1 (Homo sapiens, UniProt Q99705); experiment: Late-stage fluorescence-based counterscreen for antagonists of the G-protein coupled receptor 7 (GPR7): cell-based dose response assay to identify antagonists of the melanin-concentrating hormone receptor 1 (MCHR1) Set 5.
[49] = target: T2, Neuropeptides B/W receptor type 1 (Homo sapiens, UniProt P48145); experiment: human NPBW1 receptor blockade, IC50 – cell-based, fluorescence, dose response, set 5, late-stage follow-up (AID 588566)
T2 sequence (P48145 whole entry): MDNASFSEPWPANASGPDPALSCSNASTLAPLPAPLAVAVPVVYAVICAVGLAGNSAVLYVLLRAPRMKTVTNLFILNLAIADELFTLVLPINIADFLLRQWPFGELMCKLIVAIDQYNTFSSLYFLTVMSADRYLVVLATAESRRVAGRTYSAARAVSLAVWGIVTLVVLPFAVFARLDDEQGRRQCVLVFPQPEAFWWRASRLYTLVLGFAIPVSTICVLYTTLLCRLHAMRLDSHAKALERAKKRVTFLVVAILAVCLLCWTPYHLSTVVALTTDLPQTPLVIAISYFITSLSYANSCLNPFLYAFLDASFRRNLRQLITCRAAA

Chain of Mitogen-activated protein kinase 14 (Q16539 whole entry): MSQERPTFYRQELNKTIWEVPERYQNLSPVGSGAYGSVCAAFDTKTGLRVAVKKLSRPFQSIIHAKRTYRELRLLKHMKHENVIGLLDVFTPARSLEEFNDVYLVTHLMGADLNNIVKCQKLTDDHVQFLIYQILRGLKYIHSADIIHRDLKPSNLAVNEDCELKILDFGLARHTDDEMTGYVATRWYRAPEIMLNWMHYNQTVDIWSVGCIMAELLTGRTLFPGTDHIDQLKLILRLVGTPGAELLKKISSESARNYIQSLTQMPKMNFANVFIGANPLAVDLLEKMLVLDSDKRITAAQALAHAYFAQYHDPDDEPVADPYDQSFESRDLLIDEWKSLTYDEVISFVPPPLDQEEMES
Chain of Leukocyte tyrosine kinase receptor (P29376 whole entry): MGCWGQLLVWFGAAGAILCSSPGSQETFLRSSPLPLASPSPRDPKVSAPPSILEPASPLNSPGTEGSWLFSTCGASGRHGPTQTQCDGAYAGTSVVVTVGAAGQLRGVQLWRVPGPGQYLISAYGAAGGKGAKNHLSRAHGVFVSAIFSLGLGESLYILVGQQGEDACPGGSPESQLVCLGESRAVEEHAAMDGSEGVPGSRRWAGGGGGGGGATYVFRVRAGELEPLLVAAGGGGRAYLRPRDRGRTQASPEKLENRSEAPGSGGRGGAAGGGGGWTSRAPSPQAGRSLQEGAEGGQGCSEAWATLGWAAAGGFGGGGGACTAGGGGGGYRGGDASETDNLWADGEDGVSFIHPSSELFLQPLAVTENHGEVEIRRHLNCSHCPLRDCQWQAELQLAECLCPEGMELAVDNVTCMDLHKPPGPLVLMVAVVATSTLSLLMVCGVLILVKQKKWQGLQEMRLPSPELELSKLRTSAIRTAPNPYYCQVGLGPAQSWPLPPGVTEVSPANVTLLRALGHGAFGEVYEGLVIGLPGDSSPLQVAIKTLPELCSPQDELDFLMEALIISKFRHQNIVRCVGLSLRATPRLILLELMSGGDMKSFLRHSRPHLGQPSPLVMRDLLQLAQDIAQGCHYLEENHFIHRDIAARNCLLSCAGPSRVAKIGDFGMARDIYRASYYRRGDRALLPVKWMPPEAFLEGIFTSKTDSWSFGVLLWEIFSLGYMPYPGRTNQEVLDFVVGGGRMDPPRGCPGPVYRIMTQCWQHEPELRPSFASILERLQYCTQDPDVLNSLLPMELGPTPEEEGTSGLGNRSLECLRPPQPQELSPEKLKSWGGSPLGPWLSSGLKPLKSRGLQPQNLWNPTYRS
Chain of Serine/threonine-protein kinase PAK 4 (O96013 whole entry): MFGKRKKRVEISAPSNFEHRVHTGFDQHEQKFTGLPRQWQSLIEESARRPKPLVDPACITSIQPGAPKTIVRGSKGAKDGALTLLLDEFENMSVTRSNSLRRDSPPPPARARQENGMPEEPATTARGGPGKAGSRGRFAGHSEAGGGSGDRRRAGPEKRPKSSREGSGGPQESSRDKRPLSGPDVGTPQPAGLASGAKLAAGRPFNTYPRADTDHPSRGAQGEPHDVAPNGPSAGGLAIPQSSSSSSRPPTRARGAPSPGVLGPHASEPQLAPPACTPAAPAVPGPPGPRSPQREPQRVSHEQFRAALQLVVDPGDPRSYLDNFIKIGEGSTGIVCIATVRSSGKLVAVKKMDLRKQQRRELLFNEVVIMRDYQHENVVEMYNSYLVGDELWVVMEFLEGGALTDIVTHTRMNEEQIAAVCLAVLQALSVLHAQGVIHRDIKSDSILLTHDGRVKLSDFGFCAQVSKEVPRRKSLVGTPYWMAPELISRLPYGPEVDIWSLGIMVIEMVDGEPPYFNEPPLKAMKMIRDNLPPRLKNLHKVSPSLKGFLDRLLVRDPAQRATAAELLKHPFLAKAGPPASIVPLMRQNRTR
Chain of Dual specificity mitogen-activated protein kinase kinase 1 (Q02750 whole entry): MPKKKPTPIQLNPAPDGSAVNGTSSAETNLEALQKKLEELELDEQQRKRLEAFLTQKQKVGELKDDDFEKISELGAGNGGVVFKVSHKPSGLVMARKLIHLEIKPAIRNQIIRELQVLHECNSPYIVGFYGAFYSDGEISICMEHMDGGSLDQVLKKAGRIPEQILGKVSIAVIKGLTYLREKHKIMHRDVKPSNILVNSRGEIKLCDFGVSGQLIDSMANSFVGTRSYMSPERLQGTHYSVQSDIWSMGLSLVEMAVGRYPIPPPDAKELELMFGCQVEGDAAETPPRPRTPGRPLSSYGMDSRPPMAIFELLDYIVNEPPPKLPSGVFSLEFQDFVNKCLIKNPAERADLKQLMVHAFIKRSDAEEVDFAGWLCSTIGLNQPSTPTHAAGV
Chain of Inhibitor of nuclear factor kappa-B kinase subunit epsilon (Q14164 whole entry): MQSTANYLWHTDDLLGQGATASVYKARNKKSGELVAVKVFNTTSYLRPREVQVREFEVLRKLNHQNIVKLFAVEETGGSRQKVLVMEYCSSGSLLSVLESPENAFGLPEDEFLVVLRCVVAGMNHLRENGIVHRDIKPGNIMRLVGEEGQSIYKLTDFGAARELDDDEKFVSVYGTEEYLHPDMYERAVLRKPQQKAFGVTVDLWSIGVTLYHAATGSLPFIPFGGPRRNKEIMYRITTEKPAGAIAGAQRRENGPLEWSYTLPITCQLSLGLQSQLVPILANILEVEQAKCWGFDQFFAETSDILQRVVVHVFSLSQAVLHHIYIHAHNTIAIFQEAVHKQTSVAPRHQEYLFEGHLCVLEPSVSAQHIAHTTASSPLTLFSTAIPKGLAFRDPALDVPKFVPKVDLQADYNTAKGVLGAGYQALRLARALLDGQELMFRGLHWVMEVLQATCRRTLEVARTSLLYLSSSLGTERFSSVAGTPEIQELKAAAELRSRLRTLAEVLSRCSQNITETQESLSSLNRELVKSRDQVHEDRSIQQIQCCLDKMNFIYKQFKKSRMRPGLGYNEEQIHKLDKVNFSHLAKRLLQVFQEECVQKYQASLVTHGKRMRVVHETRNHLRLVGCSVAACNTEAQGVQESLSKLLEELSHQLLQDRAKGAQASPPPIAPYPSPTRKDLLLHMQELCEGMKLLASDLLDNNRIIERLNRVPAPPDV
Chain of Vascular endothelial growth factor receptor 1 (P17948 whole entry): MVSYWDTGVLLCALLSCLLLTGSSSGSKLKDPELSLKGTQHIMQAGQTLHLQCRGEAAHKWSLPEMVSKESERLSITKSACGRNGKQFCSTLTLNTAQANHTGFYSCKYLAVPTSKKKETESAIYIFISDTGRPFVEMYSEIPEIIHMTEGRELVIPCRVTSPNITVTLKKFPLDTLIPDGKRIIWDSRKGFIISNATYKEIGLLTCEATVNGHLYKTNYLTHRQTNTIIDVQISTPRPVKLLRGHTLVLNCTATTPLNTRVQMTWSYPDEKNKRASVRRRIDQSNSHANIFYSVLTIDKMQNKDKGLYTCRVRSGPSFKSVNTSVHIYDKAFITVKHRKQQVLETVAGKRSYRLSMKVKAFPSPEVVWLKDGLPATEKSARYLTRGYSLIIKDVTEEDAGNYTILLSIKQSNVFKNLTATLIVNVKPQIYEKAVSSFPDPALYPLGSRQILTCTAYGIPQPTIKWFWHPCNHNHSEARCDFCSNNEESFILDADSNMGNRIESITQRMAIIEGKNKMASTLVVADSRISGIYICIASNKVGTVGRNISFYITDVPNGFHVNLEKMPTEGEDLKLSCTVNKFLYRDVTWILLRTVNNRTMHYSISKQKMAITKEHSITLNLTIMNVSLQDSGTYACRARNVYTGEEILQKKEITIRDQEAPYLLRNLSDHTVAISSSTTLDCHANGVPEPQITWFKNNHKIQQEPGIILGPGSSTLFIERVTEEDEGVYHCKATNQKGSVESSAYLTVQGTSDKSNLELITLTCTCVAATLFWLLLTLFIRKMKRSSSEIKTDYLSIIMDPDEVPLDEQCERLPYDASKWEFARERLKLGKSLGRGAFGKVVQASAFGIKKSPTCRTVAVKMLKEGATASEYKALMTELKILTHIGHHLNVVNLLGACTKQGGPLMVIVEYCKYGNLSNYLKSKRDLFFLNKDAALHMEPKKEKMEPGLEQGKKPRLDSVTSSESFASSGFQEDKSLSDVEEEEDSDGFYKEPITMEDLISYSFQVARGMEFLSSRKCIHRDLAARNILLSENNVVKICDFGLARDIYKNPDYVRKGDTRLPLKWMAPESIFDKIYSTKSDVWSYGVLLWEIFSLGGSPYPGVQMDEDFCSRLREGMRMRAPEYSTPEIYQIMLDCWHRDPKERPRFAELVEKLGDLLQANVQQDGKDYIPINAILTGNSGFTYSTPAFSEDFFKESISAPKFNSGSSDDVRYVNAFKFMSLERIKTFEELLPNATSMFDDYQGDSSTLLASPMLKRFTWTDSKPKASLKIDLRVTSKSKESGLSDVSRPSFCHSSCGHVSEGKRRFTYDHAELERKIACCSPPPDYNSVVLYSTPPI
Chain of Melanin-concentrating hormone receptor 1 (Q99705 whole entry): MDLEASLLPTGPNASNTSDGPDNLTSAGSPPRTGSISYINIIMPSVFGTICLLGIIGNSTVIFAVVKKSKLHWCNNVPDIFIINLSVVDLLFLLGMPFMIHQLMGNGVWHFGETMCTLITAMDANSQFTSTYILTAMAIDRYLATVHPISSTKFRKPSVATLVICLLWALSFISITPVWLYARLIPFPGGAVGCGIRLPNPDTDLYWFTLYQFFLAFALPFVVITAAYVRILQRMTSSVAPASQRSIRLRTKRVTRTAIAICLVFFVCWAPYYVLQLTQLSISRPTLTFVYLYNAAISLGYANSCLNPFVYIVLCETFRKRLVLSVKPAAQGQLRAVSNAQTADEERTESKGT
Chain of Cyclin-dependent kinase 9 (P50750 whole entry): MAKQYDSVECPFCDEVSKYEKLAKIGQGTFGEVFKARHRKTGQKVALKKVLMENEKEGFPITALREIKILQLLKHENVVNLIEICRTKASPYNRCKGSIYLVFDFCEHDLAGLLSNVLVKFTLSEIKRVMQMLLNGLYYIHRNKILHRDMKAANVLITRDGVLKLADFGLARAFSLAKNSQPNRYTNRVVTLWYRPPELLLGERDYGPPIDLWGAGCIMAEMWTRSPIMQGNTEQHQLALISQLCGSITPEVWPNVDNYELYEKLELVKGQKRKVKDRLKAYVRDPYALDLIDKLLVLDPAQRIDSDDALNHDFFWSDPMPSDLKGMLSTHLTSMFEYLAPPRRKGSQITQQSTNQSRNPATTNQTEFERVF

**Q.** Which results are given for `O=C(Nc1cnccn1)Nc1cccc2c(O)cccc12`?
**A.** Ki [1]: 1580 nM (active); Ki [2]: 3980 nM (active); Ki [3]: > 3160 nM (inactive); Ki [4]: > 1260 nM (inactive); Ki [5]: > 3980 nM (inactive); Ki [6]: > 6310 nM (inactive); Ki [7]: 794 nM (active); Ki (Focal adhesion kinase 1): > 6310 nM (inactive); Ki [8]: > 3980 nM (inactive); Ki [9]: 1580 nM (active); Ki [10]: 1580 nM (active); Ki [11]: 1000 nM (active); Ki [12]: 5010 nM (active); Ki [13]: > 6310 nM (inactive); Ki (LIM domain kinase 1): 126 nM (active); Ki [14]: > 3980 nM (inactive); Ki [15]: 2000 nM (active); Ki [16]: > 3160 nM (inactive); Ki [17]: 2000 nM (active); Ki [18]: 1000 nM (active); Ki [19]: 2000 nM (active); Ki [20]: > 3160 nM (inactive); Ki (Activated CDC42 kinase 1): > 3980 nM (inactive); Ki [21]: > 3980 nM (inactive); Ki [22]: 3980 nM (active); Ki [23]: > 3980 nM (inactive); Ki [24]: 1260 nM (active); Ki [25]: > 3980 nM (inactive); Ki [26]: 126 nM (active); Ki [27]: > 3980 nM (inactive); Ki [28]: > 2000 nM (inactive); Ki [29]: > 3160 nM (inactive); Ki [30]: 316 nM (active); Ki [31]: > 5010 nM (inactive); Ki [32]: > 6310 nM (inactive); Ki [33]: 2000 nM (active); Ki [34]: 6.31 nM (active); Ki (Aurora kinase A): > 1580 nM (inactive); Ki [35]: > 6310 nM (inactive); Ki [36]: 1580 nM (active); Ki [37]: > 3160 nM (inactive); Ki [38]: > 3160 nM (inactive); Ki (Aurora kinase B): > 3980 nM (inactive); Ki [39]: > 5010 nM (inactive); Ki [40]: 200 nM (active); Ki [41]: 316 nM (active); Ki [42]: 1000 nM (active); Ki [43]: 631 nM (active); Ki [44]: 2000 nM (active); Ki [45]: > 3980 nM (inactive); Ki [46]: 1580 nM (active)

**Q.** Which IC50 [47] does the source give for `CC(=O)c1ccc(C(=O)Nc2ccc3[nH]c(C)nc3c2)s1` here?
**A.** > 100000 nM (inactive)

**Q.** What does the source list for `COc1ccc(C(C#N)c2c(Cl)cnn(Cc3cccc4ccccc34)c2=O)cc1` (centres undefined)?
**A.** IC50 [48]: 1130 nM (active); IC50 [49]: 360 nM (active)
